In patent US20230233569A1 (Revolution Medicines, Inc., priority 2020, published 2023):

Columns and labels:
NCI-H358 (K-Ras G12C) = assay: CellTiter-Glo cell viability assay, 5-day treatment; assay type: cell-based; details: Homo sapiens, NCI-H358, 120 h, 5-day treatment; read-out: H358 Cell Viability assay data (K-Ras G12C, IC50)
Method in brief: (§1)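 Luminescence read-out after 5 days of compound exposure, with plates first brought to room temperature for roughly 30 minutes. Values are percent of averaged DMSO wells, fitted by four-parameter logistic regression.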

Capan-1 (K-Ras G12V) = assay: as above; assay type: cell-based; details: Homo sapiens, CAPAN-1, 120 h, 5-day treatment; read-out: Capan-1 Cell Viability assay data (K-Ras G12V, IC50)
Method in brief: as §1

KRAS G12V = KRAS G12V (Homo sapiens, UniProt P01116+P62937, G12V); assay: Disruption of BRAF RBD interaction with Ras (FRET / MOA assay, with Cyclophilin A); assay type: biochemical; details: KRAS G12V; read-out: KRAS G12V FRET data IC50
Chain of KRAS G12V (P01116 1-169 isoform P01116-2 G12V limits assumed): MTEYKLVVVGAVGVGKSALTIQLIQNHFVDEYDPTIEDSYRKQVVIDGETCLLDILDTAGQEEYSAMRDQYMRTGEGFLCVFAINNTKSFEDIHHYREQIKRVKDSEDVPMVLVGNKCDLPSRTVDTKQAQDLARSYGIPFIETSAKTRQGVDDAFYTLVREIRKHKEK
Chain of KRAS G12V (P62937 whole entry): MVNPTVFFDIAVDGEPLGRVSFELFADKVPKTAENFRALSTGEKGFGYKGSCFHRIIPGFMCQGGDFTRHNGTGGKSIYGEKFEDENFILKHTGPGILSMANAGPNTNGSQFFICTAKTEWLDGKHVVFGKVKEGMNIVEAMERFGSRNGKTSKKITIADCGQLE
Method in brief: (§2)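 Cyclophilin A-dependent ternary complex assay. K-Ras loaded with nucleotide; BRAF RBD as effector. Cpd top 30 μM final, 3 h at 25 °C. Readout: TR-FRET ratio, IC50.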

KRAS G12C = KRAS G12C (Homo sapiens, UniProt P01116+P62937, G12C); assay: as above; assay type: biochemical; details: read-out: KRAS G12C FRET data, IC50
Chain of KRAS G12C (P01116 1-169 isoform P01116-2 G12C): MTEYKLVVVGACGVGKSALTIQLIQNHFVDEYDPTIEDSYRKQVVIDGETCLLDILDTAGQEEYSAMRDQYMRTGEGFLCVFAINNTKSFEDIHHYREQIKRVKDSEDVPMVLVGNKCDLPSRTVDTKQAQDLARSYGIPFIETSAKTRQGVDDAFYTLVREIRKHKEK
Chain of KRAS G12C (P62937 whole entry): as the sequence (P62937 whole entry) above
Method in brief: as §2

NRAS G12C = NRAS G12C (Homo sapiens, UniProt P01111+P62937, G12C); assay: as above; assay type: biochemical; details: NRAS G12C; read-out: NRAS G12C FRET data IC50
Chain of NRAS G12C (P01111 whole entry G12C): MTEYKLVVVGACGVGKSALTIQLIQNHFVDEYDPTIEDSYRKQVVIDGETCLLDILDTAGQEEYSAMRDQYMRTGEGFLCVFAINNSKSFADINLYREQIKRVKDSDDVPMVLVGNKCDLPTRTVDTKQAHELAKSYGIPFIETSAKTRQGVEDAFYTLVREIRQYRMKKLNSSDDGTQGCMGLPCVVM
Chain of NRAS G12C (P62937 whole entry): as the sequence (P62937 whole entry) above

KRAS G13C = KRAS G13C (Homo sapiens, UniProt P01116+P62937, G13C); assay: as above; assay type: biochemical; details: read-out: KRAS G13C FRET data, IC50
Chain of KRAS G13C (P01116 1-169 isoform P01116-2 G13C): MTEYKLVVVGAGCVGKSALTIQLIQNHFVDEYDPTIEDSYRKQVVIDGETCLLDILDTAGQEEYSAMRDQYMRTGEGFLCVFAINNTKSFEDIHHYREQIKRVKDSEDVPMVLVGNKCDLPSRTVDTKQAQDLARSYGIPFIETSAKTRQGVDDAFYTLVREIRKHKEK
Chain of KRAS G13C (P62937 whole entry): as the sequence (P62937 whole entry) above
Method in brief: as §2

KRAS G12S = KRAS G12S (Homo sapiens, UniProt P01116+P62937, G12S); assay: as above; assay type: biochemical; details: read-out: KRAS G12S FRET data, IC50
Chain of KRAS G12S (P01116 1-169 isoform P01116-2 G12S limits assumed): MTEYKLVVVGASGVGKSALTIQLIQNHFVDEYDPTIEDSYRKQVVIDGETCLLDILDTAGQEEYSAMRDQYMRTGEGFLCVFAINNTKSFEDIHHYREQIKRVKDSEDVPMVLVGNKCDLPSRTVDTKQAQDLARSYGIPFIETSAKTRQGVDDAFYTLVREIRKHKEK
Chain of KRAS G12S (P62937 whole entry): as the sequence (P62937 whole entry) above
Method in brief: as §2

KRAS G12D = KRAS G12D (Homo sapiens, UniProt P01116+P62937, G12D); assay: as above; assay type: biochemical; details: read-out: KRAS G12D FRET data, IC50
Chain of KRAS G12D (P01116 1-169 isoform P01116-2 G12D limits assumed): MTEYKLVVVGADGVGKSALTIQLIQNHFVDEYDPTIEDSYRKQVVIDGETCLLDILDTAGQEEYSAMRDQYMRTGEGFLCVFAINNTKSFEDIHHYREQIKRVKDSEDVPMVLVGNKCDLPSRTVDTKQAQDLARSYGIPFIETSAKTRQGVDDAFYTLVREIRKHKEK
Chain of KRAS G12D (P62937 whole entry): as the sequence (P62937 whole entry) above
Method in brief: as §2

KRAS G13D = KRAS G13D (Homo sapiens, UniProt P01116+P62937, G13D); assay: as above; assay type: biochemical; details: KRAS G13D; read-out: KRAS G13D FRET data IC50
Chain of KRAS G13D (P01116 1-169 isoform P01116-2 G13D limits assumed): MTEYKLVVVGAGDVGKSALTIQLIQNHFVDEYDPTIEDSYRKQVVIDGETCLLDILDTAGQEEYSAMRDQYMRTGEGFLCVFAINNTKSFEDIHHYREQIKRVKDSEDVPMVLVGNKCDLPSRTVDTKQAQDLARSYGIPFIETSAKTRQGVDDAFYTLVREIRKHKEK
Chain of KRAS G13D (P62937 whole entry): as the sequence (P62937 whole entry) above
Method in brief: as §2

KRAS WT = KRAS WT (Homo sapiens, UniProt P01116+P62937); assay: as above; assay type: biochemical; details: KRAS WT; read-out: KRAS WT FRET data IC50
Chain of KRAS WT (P01116 1-169 isoform P01116-2 limits assumed): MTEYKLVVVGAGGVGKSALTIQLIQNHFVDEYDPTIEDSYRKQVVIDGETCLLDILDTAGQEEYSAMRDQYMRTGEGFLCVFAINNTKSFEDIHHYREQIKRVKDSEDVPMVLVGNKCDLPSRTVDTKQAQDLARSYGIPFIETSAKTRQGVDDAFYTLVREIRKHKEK
Chain of KRAS WT (P62937 whole entry): as the sequence (P62937 whole entry) above
Method in brief: as §2

## CCn1c(-c2cccnc2[C@H](C)OC)c2c3cc(ccc31)-c1cc(O)cc(c1)C[C@H](NC(=O)[C@H](C(C)C)N(C)C(=O)[C@@H]1CCNC1)C(=O)N1CCC[C@H](N1)C(=O)OCC(C)(C)C2 [Example A129]
NCI-H358 (K-Ras G12C)
  IC50: 1000 to 10000 nM
Capan-1 (K-Ras G12V)
  IC50: 1000 to 10000 nM
KRAS G12V
  IC50: 100 to 1000 nM
KRAS G12C
  IC50: 10 to 100 nM
NRAS G12C
  IC50: 10 to 100 nM
KRAS G13C
  IC50: 10 to 100 nM
KRAS G12S
  IC50: 10 to 100 nM
KRAS G12D
  IC50: 10 to 100 nM
KRAS G13D
  IC50: 10 to 100 nM
KRAS WT
  IC50: 10 to 100 nM

## CCn1c(-c2cccnc2[C@H](C)OC)c2c3cc(ccc31)-c1cc(O)cc(c1)C[C@H](NC(=O)[C@H](C(C)C)N(C)C(=O)[C@H]1CCC[C@H]1N)C(=O)N1CCC[C@H](N1)C(=O)OCC(C)(C)C2 (atropisomer, axis not shown) [Example A131]
NCI-H358 (K-Ras G12C)
  IC50: 10 to 100 nM
Capan-1 (K-Ras G12V)
  IC50: 100 to 1000 nM
KRAS G12V
  IC50: 100 to 1000 nM
KRAS G12C
  IC50: 10 to 100 nM
NRAS G12C
  IC50: 10 to 100 nM
KRAS G13C
  IC50: 10 to 100 nM
KRAS G12S
  IC50: 10 to 100 nM
KRAS G12D
  IC50: 10 to 100 nM
KRAS G13D
  IC50: 10 to 100 nM
KRAS WT
  IC50: 10 to 100 nM

## CCn1c(-c2cnccc2COC)c2c3cc(ccc31)-c1cc(O)cc(c1)C[C@H](NC(=O)C1CCCC1C(F)F)C(=O)N1CCC[C@H](N1)C(=O)OCC(C)(C)C2 (some centres unmarked) [Example A261]
NCI-H358 (K-Ras G12C)
  IC50: 1000 to 10000 nM
Capan-1 (K-Ras G12V)
  IC50: 1000 to 10000 nM
KRAS G12V
  IC50: 1000 to 10000 nM
KRAS G12C
  IC50: 1000 to 10000 nM
NRAS G12C
  IC50: 1000 to 10000 nM
KRAS G13C
  IC50: 1000 to 10000 nM
KRAS G12S
  IC50: 1000 to 10000 nM
KRAS G12D
  IC50: > 10000 nM
KRAS G13D
  IC50: 1000 to 10000 nM
KRAS WT
  IC50: 1000 to 10000 nM

## CCn1c(-c2cccnc2[C@H](C)OC)c2c3cc(ccc31)-c1cc(O)cc(c1)C[C@H](NC(=O)[C@H](C(C)C)N(C)C(=O)C1CC13CCNC3)C(=O)N1CCC[C@H](N1)C(=O)OCC(C)(C)C2 (some centres unmarked) [Example A148]
NCI-H358 (K-Ras G12C)
  IC50: 1000 to 10000 nM
Capan-1 (K-Ras G12V)
  IC50: 1000 to 10000 nM
KRAS G12V
  IC50: 100 to 1000 nM
KRAS G12C
  IC50: 10 to 100 nM
NRAS G12C
  IC50: 10 to 100 nM
KRAS G13C
  IC50: 10 to 100 nM
KRAS G12S
  IC50: 10 to 100 nM
KRAS G12D
  IC50: 10 to 100 nM
KRAS G13D
  IC50: 10 to 100 nM
KRAS WT
  IC50: 10 to 100 nM

## CCn1c(-c2cnccc2COC)c2c3cc(ccc31)-c1cc(O)cc(c1)C[C@H](NC(=O)[C@H](C(C)C)N(C)C(=O)O[C@H]1CCOC1)C(=O)N1CCC[C@H](N1)C(=O)OCC(C)(C)C2 [Example A260]
NCI-H358 (K-Ras G12C)
  IC50: 100 to 1000 nM
Capan-1 (K-Ras G12V)
  IC50: 1000 to 10000 nM
KRAS G12V
  IC50: 1000 to 10000 nM
KRAS G12C
  IC50: 100 to 1000 nM
NRAS G12C
  IC50: 100 to 1000 nM
KRAS G13C
  IC50: 1000 to 10000 nM
KRAS G12S
  IC50: 100 to 1000 nM
KRAS G12D
  IC50: 1000 to 10000 nM
KRAS G13D
  IC50: 1000 to 10000 nM
KRAS WT
  IC50: 100 to 1000 nM

## CCn1c(-c2cccnc2[C@H](C)OC)c2c3cc(ccc31)-c1cc(O)cc(c1)C[C@H](NC(=O)[C@H](C(C)C)N(C)C(=O)[C@H]1CCN(C(=O)OC(C)(C)C)C1)C(=O)N1CCC[C@H](N1)C(=O)OCC(C)(C)C2 [Example A233]
NCI-H358 (K-Ras G12C)
  IC50: 10 to 100 nM
Capan-1 (K-Ras G12V)
  IC50: 10 to 100 nM
KRAS G12V
  IC50: 10 to 100 nM
KRAS G12C
  IC50: 10 to 100 nM
NRAS G12C
  IC50: 10 to 100 nM
KRAS G13C
  IC50: 10 to 100 nM
KRAS G12S
  IC50: 100 to 1000 nM
KRAS G12D
  IC50: 100 to 1000 nM
KRAS G13D
  IC50: 100 to 1000 nM
KRAS WT
  IC50: 100 to 1000 nM

## CCn1c(-c2cccnc2[C@H](C)OC)c2c3cc(ccc31)-c1cc(O)cc(c1)C[C@H](NC(=O)[C@H](C(C)C)N(C)C(=O)[C@H]1CCN(CCO)C1)C(=O)N1CCC[C@H](N1)C(=O)OCC(C)(C)C2 [Example A111]
NCI-H358 (K-Ras G12C)
  IC50: 1000 to 10000 nM
Capan-1 (K-Ras G12V)
  IC50: 1000 to 10000 nM
KRAS G12V
  IC50: 1000 to 10000 nM
KRAS G12C
  IC50: 10 to 100 nM
NRAS G12C
  IC50: 100 to 1000 nM
KRAS G13C
  IC50: 10 to 100 nM
KRAS G12S
  IC50: 10 to 100 nM
KRAS G12D
  IC50: 10 to 100 nM
KRAS G13D
  IC50: 10 to 100 nM
KRAS WT
  IC50: 10 to 100 nM

## CCn1c(-c2cccnc2[C@H](C)OC)c2c3cc(ccc31)-c1csc(n1)C[C@H](NC(=O)[C@H](C(C)C)N(C)C(=O)N1CC(N3CCN(C)CC3)C1)C(=O)N1CCC[C@H](N1)C(=O)OCC(C)(C)C2 [Example A288]
NCI-H358 (K-Ras G12C)
  IC50: 10 to 100 nM
Capan-1 (K-Ras G12V)
  IC50: 10 to 100 nM
KRAS G12V
  IC50: 100 to 1000 nM
KRAS G12C
  IC50: 10 to 100 nM
NRAS G12C
  IC50: 10 to 100 nM
KRAS G13C
  IC50: 100 to 1000 nM
KRAS G12S
  IC50: 100 to 1000 nM
KRAS G12D
  IC50: 100 to 1000 nM
KRAS G13D
  IC50: 100 to 1000 nM
KRAS WT
  IC50: 100 to 1000 nM
